Measurements taken from patent US11793885B2, “Substituted benzo[5,6][1,4]diazepino[1,2-a]indoles for the treatment of proliferative disorders” (priority 2017, dated 2023).
Where two headings read alike, the source gives them in different places.

How the values were obtained:
KB (cervical carcinoma) = experiment: in vitro cytotoxicity assay, KB cells; format: cell-based, human; details: free cytotoxic compound, 5 days
Text: (§1) Following cell lines were used for the study: KB (cervical carcinoma, ATCC), NCI-H2110 (Non Small Cell Lung Carcinoma, ATCC), Namalwa (Burkitt's lymphoma, ATCC), Ishikawa (endometrial adenocarcinoma, ECACC), EOL-1 (Acute Myeloid Leukemia, ECACC), JEG-3 (choriocarcinoma, ATCC), JHOS-4 (ovarian adenocarcinoma, Riken Bioresource Center), OV-90 (ovarian adenocarcinoma, ATCC), SKOV-6 (ovarian adenocarcinoma, Memorial Sloan Kettering Cancer Center), Igrov-1 (ovarian adenocarcinoma, National Cancer Institute), KB-GRC1-MDR (cervical carcinoma/Pgp positive, gift from Dr. Roninson at the Ordway Research Institute) and T47D (breast epithelial cancer, ATCC). The cells were maintained and plated for the cytotox experiments in media recommended by the manufacturers. Cells were plated in the 96-well flat bottom plates at a seeding density of 800 cells per well (Ishikawa, JEG-3 or SK-OV-6), 1,000 cells per well (KB, Namalwa, EOL-1, OV-90 and Igrov-1) or 2,000 cell per well (NCI H2110, JHOS-4 and T47D). Conjugates or free drug compounds were diluted in RPMI-1640 (Life Technologies) supplemented with heat-inactivated 100 FBS (Life Technologies) and 0.1 mg/ml gentamycin (Life Technologies), and added to the plated cells. To determine specificity of cytotoxic activity of the conjugates an excess of unconjugated antibody was added to a separate set of diluted conjugates (+block samples, IC50 table). The plates were incubated at 37° C., 500 CO2 for either 4 days (JHOS-4 and T47D cells) or 5 days (KB, NCI H2110, Ishikawa, EOL-1, JEG-3, OV-90, SK-OV-6, NC-H441 and Igrov-1 cells). Alamar blue assay (Invitrogen) was used to determine viability of JHOS-4 and T47D cells, and WST-8 assay (Donjindo Molecular Technologies, Inc.) was applied for viability of KB, NCI H2110, Namalwa, Ishikawa, EOL-1, JEG-4, OV-90, SK-OV-6, NCI-H4441 and Igrov-1 cells. The assays were performed in accordance with the manufacturer's protocols. Killing curves and IC50 were generated using a sigmoidal dose-response nonlinear regression curve fit (GraphPad Software Inc.).

[1] = test system: Namalwa (Burkitt's lymphoma); experiment: in vitro cytotoxicity assay, Namalwa cells; format: cell-based, human; details: free cytotoxic compound
Text: as §1

[2] = test system: Ishikawa (endometrial adenocarcinoma); experiment: in vitro cytotoxicity assay, Ishikawa cells; format: cell-based; details: free cytotoxic compound, 5 days
Text: as §1

[3] = test system: KB-GRC1-MDR (cervical carcinoma/Pgp positive); experiment: cells; details: read-out: IC50 KB-MDR
Text: Following cell lines were used for the study: KB (cervical carcinoma, ATCC), NCI-H2110 (Non Small Cell Lung Carcinoma, ATCC), Namalwa (Burkitt's lymphoma, ATCC), Ishikawa (endometrial adenocarcinoma, ECACC), EOL-1 (Acute Myeloid Leukemia, ECACC), JEG-3 (choriocarcinoma, ATCC), JHOS-4 (ovarian adenocarcinoma, Riken Bioresource Center), OV-90 (ovarian adenocarcinoma, ATCC), SKOV-6 (ovarian adenocarcinoma, Memorial Sloan Kettering Cancer Center), Igrov-1 (ovarian adenocarcinoma, National Cancer Institute), KB-GRC1-MDR (cervical carcinoma/Pgp positive, gift from Dr. Roninson at the Ordway Research Institute) and T47D (breast epithelial cancer, ATCC). The cells were maintained and plated for the cytotox experiments in media recommended by the manufacturers. Cells were plated in the 96-well flat bottom plates at a seeding density of 800 cells per well (Ishikawa, JEG-3 or SK-OV-6), 1,000 cells per well (KB, Namalwa, EOL-1, OV-90 and Igrov-1) or 2,000 cell per well (NCI H2110, JHOS-4 and T47D). […] To determine specificity of cytotoxic activity of the conjugates an excess of unconjugated antibody was added to a separate set of diluted conjugates (+block samples, IC50 table). The plates were incubated at 37° C., […] for either 4 days (JHOS-4 and T47D cells) or 5 days (KB, NCI H2110, Ishikawa, EOL-1, JEG-3, OV-90, SK-OV-6, NC-H441 and Igrov-1 cells). Alamar blue assay (Invitrogen) was used to determine viability of JHOS-4 and T47D cells, and WST-8 assay (Donjindo Molecular Technologies, Inc.) was applied for viability of KB, NCI H2110, Namalwa, Ishikawa, EOL-1, […], OV-90, SK-OV-6, […] and Igrov-1 cells. The assays were performed in accordance with the manufacturer's protocols. Killing curves and IC50 were generated using a sigmoidal dose-response nonlinear regression curve fit (GraphPad Software Inc.).

[4] = test system: NCI-H2110 (Non Small Cell Lung Carcinoma); experiment: in vitro cytotoxicity assay, NCI-H2110 cells; format: cell-based; details: free cytotoxic compound, 5 days
Text: as §1

[5] = test system: EOL-1 (Acute Myeloid Leukemia); experiment: in vitro cytotoxicity assay, EOL-1 cells; format: cell-based; details: Homo sapiens, EOL1, 120 h; free cytotoxic compound; 5 days
Text: as §1

[6] = Phase I clinical evaluation; cited from earlier work
[7] = test system: T47D (breast epithelial cancer); experiment: in vitro cytotoxicity assay, T47D cells; format: cell-based; details: Homo sapiens, 96 h, read-out: IC50 T47D
Experimental: The cells were maintained and plated for the cytotox experiments in media recommended by the manufacturers. Cells were plated in the 96-well flat bottom plates at a seeding density of 800 cells per well (Ishikawa, JEG-3 or SK-OV-6), 1,000 cells per well (KB, Namalwa, EOL-1, OV-90 and Igrov-1) or 2,000 cell per well (NCI H2110, JHOS-4 and T47D). Conjugates or free drug compounds were diluted in RPMI-1640 (Life Technologies) supplemented with heat-inactivated 100 FBS (Life Technologies) and 0.1 mg/ml gentamycin (Life Technologies), and added to the plated cells. To determine specificity of cytotoxic activity of the conjugates an excess of unconjugated antibody was added to a separate set of diluted conjugates (+block samples, IC50 table). The plates were incubated at 37° C., 500 CO2 for either 4 days (JHOS-4 and T47D cells) or 5 days (KB, NCI H2110, Ishikawa, EOL-1, JEG-3, OV-90, SK-OV-6, NC-H441 and Igrov-1 cells). Alamar blue assay (Invitrogen) was used to determine viability of JHOS-4 and T47D cells, and WST-8 assay (Donjindo Molecular Technologies, Inc.) was applied for viability of KB, NCI H2110, Namalwa, Ishikawa, EOL-1, JEG-4, OV-90, SK-OV-6, NCI-H4441 and Igrov-1 cells. The assays were performed in accordance with the manufacturer's protocols. Killing curves and IC50 were generated using a sigmoidal dose-response nonlinear regression curve fit (GraphPad Software Inc.).

Row | Compound | IC50 (KB (cervical carcinoma); Homo sapiens, KB, 120 h) [nM] | IC50 ([1]; Homo sapiens) [nM] | IC50 ([2]; Homo sapiens, Ishikawa, 120 h) [nM] | IC50 ([4]; NCI-H2110, 120 h) [nM] | IC50 [5] [nM] | further results
1 | COc1cc2c(cc1OCCCC(=O)Nc1cn(C)c(C(=O)Nc3ccc(-c4csc(C(=O)NCC(C)(C)SSC)n4)cc3)n1)N=C[C@@H]1Cc3ccccc3N1C2=O [Compound 113] | 0.2 | 0.07 | 0.2 | 0.4 |  | IC50 [3]: 3 nM
2 | COc1cc2c(cc1OCCCCNC(=O)c1cc(NC(=O)c3cc(NC(=O)CCC(C)(C)SSC)cn3C)cn1C)N=C[C@@H]1Cc3ccccc3N1C2=O [Compound 192] | 0.9 | 0.4 |  | 2 |  | 
3 | COC(=O)CCNC(=O)c1cc2cc(NC(=O)c3cc(NC(=O)CCCOc4cc5c(cc4OC)C(=O)N4c6ccccc6C[C@H]4C=N5)cn3C)ccc2s1 [Compound 9] | 0.04 | 0.03 | 0.07 | 0.2 | 0.01 | 
4 | COc1cc2c(cc1OCCCC(=O)Nc1cn(C)c(C(=O)Nc3ccc4sccc4c3)n1)N=C[C@@H]1Cc3ccccc3N1C2=O [Compound 137] | 0.05 | 0.02 |  | 0.1 | 0.01 | 
5 | COc1cc2c(cc1OCCCC(=O)Nc1cccc(C(=O)Nc3cc(C(=O)NCC(C)(C)SSC)n(C)c3)n1)N=C[C@@H]1Cc3ccccc3CN1C2=O [Compound 205] | 0.4 | 0.1 | 0.3 | 0.8 |  | IC50 [3]: 4 nM
6 | COC(=O)CCNC(=O)c1cc2cc(NC(=O)c3cc(NC(=O)CCCOc4cc5c(cc4OC)C(=O)N4c6ccccc6C[C@H]4C=N5)cn3C)ccc2o1 [Compound 185] | 0.2 | 0.2 |  | 0.5 |  | 
7 | COc1cc2c(cc1OCCCC(=O)Nc1cn(C)c(C(=O)Nc3ccc(N)cc3)n1)N=C[C@@H]1Cc3ccccc3N1C2=O [Compound 149] | 0.2 | 0.06 | 0.1 | 0.4 |  | 
8 | COc1cc2c(cc1OCCCC(=O)Nc1cn(C)c(C(=O)Nc3ccc(-c4cc(C(=O)NCC(C)(C)SSC)n(C)c4)cc3)n1)N=C[C@@H]1Cc3ccccc3N1C2=O [Compound 125] | 0.04 | 0.01 | 0.05 | 0.06 | 0.004 | IC50 [3]: 0.9 nM
9 | C=C1C[C@H]2C=Nc3cc(OCCCOc4cc5c(cc4OC)C(=O)N4CC(=C)C[C@H]4C=N5)c(OC)cc3C(=O)N2C1 [SJG-136] |  |  |  |  |  | maximum tolerated dose [6]: 45 μg/m^2
10 | COC(=O)c1cc2cc(NC(=O)c3cc(Nc4cccc(COc5cc6c(cc5OC)C(=O)N5c7ccccc7C[C@H]5C=N6)c4)cn3C)ccc2s1 [Compound 63] | 1 | 0.3 | 0.6 | 3 |  | IC50 [3]: > 5 nM
11 | COc1cc2c(cc1OCCCC(=O)Nc1ccc(-c3cc(C(=O)NCC(C)(C)S)n(C)c3)cc1)NC(S(=O)(=O)O)[C@@H]1Cc3ccccc3N1C2=O (stereo partly shown) [Compound 30] |  | 0.7 |  |  | 0.1 | 
12 | COc1cc2c(cc1OCCCC(=O)Nc1cn(C)c(C(=O)NCc3cccc(C(=O)NCC(C)(C)S(C)=S)c3)n1)N=C[C@@H]1Cc3ccccc3N1C2=O (stereo partly shown) [Compound 121] |  |  |  |  |  | IC50 (KB (cervical carcinoma)): 2 nM; IC50 [1]: 0.6 nM; IC50 [2]: 2 nM; IC50 ([3]; free cytotoxic compound): > 5 nM; IC50 [4]: 2 nM
13 | COC(=O)CCNC(=O)c1nc(NC(=O)c2cc3cc(NC(=O)CCCOc4cc5c(cc4OC)C(=O)N4c6ccccc6C[C@H]4C=N5)ccc3o2)cn1C [Compound 180] | 1 | 0.3 |  | 2 |  | 
14 | COc1cc2c(cc1OCCCC(=O)Nc1cn(C)c(C(=O)Nc3ccc4nc(C(=O)NCC(C)(C)S(C)=S)n(C)c4c3)n1)N=C[C@@H]1Cc3ccccc3N1C2=O (stereo partly shown) [Compound 99] |  |  |  |  |  | IC50 (KB (cervical carcinoma)): 0.5 nM; IC50 [1]: 0.1 nM; IC50 [2]: 0.7 nM; IC50 [4]: 1 nM
15 | COc1cc2c(cc1OCCCC(=O)Nc1cc(C(=O)Nc3ccc(-c4cc(C(=O)NCC(C)(C)SSC)n(C)c4)cc3)n(C)c1)N=C[C@@H]1Cc3ccccc3N1C2=O [Compound 85] | 0.01 | 0.03 | 0.1 | 0.1 | 0.008 | IC50 [3]: > 5 nM
16 | COC(=O)CCNC(=O)c1cc2cc(NC(=O)c3nc(NC(=O)CCCOc4cc5c(cc4OC)C(=O)N4c6ccccc6C[C@H]4C=N5)cn3C)ccc2s1 [Compound 142] |  | 0.01 |  |  | 0.006 | 
17 | COC(=O)CCNC(=O)c1cc2cc(NC(=O)c3cc(NC(=O)CCCOc4cc5c(cc4OC)C(=O)N4c6ccccc6C[C@H]4C=N5)cn3CCCNC(=O)OC(C)(C)C)ccc2o1 [Compound 199] | 1 | > 0.5 |  | 5 |  | IC50 [4]: 3 nM
18 | COc1cc2c(cc1OCc1cccc(CC(=O)Nc3cc(C(=O)Nc4ccc(-c5cc(C(=O)NCC(C)(C)S(C)=S)n(C)c5)cc4)n(C)c3)c1)N=C[C@@H]1Cc3ccccc3N1C2=O (stereo partly shown) [Compound 55] |  |  |  |  |  | IC50 (KB (cervical carcinoma)): 9 nM; IC50 [1]: 4 nM; IC50 [4]: 2 nM
19 | COc1cc2c(cc1OCCCC(=O)Nc1cn(C)c(C(=O)Nc3ccc(-c4cc(C(=O)NCC(C)(C)SSC)n(C)c4)cc3)n1)N=C[C@@H]1Cc3ccccc3CN1C2=O [Compound 206] | 0.006 | 0.001 | 0.004 | 0.01 |  | IC50 [3]: 0.1 nM
20 | COC(=O)c1cc2cc(NC(=O)c3cc(NC(=O)CCCOc4cc5c(cc4OC)C(=O)N4c6ccccc6C[C@H]4C=N5)cn3C)ccc2s1 [Compound 7] |  | 0.02 |  |  |  | 
21 | COC(=O)c1cc2cc(NC(=O)c3cc(NCCCCOc4cc5c(cc4OC)C(=O)N4c6ccccc6C[C@H]4C=N5)cn3C)ccc2s1 [Compound 216] | 0.5 |  |  | 9 |  | IC50 [7]: 2 nM
22 | COc1cc2c(cc1OCCCC(=O)Nc1ccc(C(=O)Nc3cc(C(=O)NCC(C)(C)S(C)=S)n(C)c3)nc1)N=C[C@@H]1Cc3ccccc3N1C2=O (stereo partly shown) [Compound 117] |  |  |  |  |  | IC50 (KB (cervical carcinoma)): 0.6 nM; IC50 [1]: 0.3 nM; IC50 [2]: 1 nM; IC50 ([3]; free cytotoxic compound): > 5 nM; IC50 [4]: 2 nM
23 | COc1cc2c(cc1OCCCC(=O)Nc1cn(C)c(C(=O)Nc3ccc4sc(C(=O)NCC(C)(C)SSC)cc4c3)n1)N=C[C@@H]1Cc3ccccc3N1C2=O [Compound 155] |  | 0.03 |  |  | 0.009 | 
24 | COC(=O)CCNC(=O)c1cc2cc(NC(=O)c3nc(NC(=O)CCCOc4cc5c(cc4OC)C(=O)N4c6ccccc6C[C@H]4C=N5)cn3C)ccc2o1 [Compound 188] | 0.08 | 0.06 |  | 0.5 | 0.02 | 
25 | COc1cc2c(cc1OCCCC(=O)Nc1cn(C)c(C(=O)Nc3ccc(-c4cc(C(=O)NCC(C)(C)SSC)n(C)c4)cn3)n1)N=C[C@@H]1Cc3ccccc3N1C2=O [Compound 103] | 0.07 | 0.02 | 0.05 | 0.2 |  | IC50 [3]: 0.4 nM
26 | COc1cc2c(cc1OCCCC(=O)Nc1nc(C)c(C(=O)Nc3ccc4sc(C(=O)NCC(C)(C)S(C)=S)cc4c3)s1)N=C[C@@H]1Cc3ccccc3N1C2=O (stereo partly shown) [Compound 81] |  |  |  |  |  | IC50 (KB (cervical carcinoma)): > 5 nM; IC50 [1]: 3 nM; IC50 [2]: > 5 nM; IC50 ([3]; free cytotoxic compound): > 5 nM; IC50 [4]: > 5 nM
27 | COc1cc2c(cc1OCCCC(=O)Nc1cc(C(=O)Nc3cc(C(=O)NCC(C)(C)SSC)n(C)c3)n(C)c1)N=C[C@@H]1Cc3ccccc3N1C2=O [Compound 132] | 0.4 | 0.09 |  | 2 | 0.04 | 
28 | COC(=O)c1cc2cc(NC(=O)c3cc(NC(=O)NCCOc4cc5c(cc4OC)C(=O)N4c6ccccc6C[C@H]4C=N5)cn3C)ccc2s1 [Compound 214] | > 5 |  |  | > 5 |  | 
